# Reference: patent US6706855B1, “Antimicrobial polymer” (Avecia Limited, priority 1999, dated 2004)
# Key:
# [1] = test system: Penicillium funiculosum IMI 114933; assay: Minimum Inhibitory Concentration (MIC) against Penicillium funiculosum; assay type: cell-based; details: Fungi
# Procedure: (§1) The Minimum Inhibitory Concentration (MIC) against a range of fungi and bacteria were determined for each of the antimicrobial copolymers prepared in Examples 1 to 4 and Comparative Example A. The MIC results are shown in Table 3: […]
# [2] = test system: Staphylococcus aureus NCIB 9518; assay: Minimum Inhibitory Concentration (MIC) against Staphylococcus aureus; assay type: cell-based; details: Bacteria
# Procedure: as §1
# [3] = test system: Pseudomonas fluorescens (with Lux AB gene) our ref D481; assay: Minimum Inhibitory Concentration (MIC) against Pseudomonas fluorescens; assay type: cell-based; details: Bacteria
# Procedure: as §1
# [4] = test system: Pseudomonas aeruginosa NCIB 10421; assay: Minimum Inhibitory Concentration (MIC) against Pseudomonas aeruginosa; assay type: cell-based; details: Bacteria
# Procedure: as §1
# [5] = test system: Escherichia coli NCIB 9132; assay: Minimum Inhibitory Concentration (MIC) against Escherichia coli; assay type: cell-based; details: Bacteria
# Procedure: as §1
# [6] = test system: Bacillus subtilis NCIB 1650; assay: Minimum Inhibitory Concentration (MIC) against Bacillus subtilis; assay type: cell-based; details: Bacteria
# Procedure: as §1
# [7] = test system: a range of fungi and bacteria; assay: MIC against a range of fungi and bacteria, overall statement; assay type: cell-based; details: summary of Table 3; compared to Comparative Example A or to the copolymers
# Procedure: as §1
# [8] = test system: Klebsiella pneumoniae ATCC 4352; assay: Minimum Inhibitory Concentration (MIC) against Klebsiella pneumoniae; assay type: cell-based; details: Bacteria
# Procedure: as §1
# [9] = test system: Candida albicans NCYC 10231; assay: Minimum Inhibitory Concentration (MIC) against Candida albicans; assay type: cell-based; details: Fungi
# Procedure: as §1
smiles,measurement,setting,value
"NCCCCCCNc1ccc2c3c(cccc13)C(=O)N(CCCCCCN)C2=O [Marker 1, N-(6-aminohexyl)-4-(6-aminohexylamino)-1,8-naphthalimide]",MIC Pp,[1],999
same,MIC Sa,[2],32
same,MIC Ps.fl,[3],500
same,MIC Psa,[4],999
same,MIC Ec,[5],500
same,MIC Bs,[6],500
same,"antimicrobial effect (MIC, in words)",[7],little or no antimicrobial effect
same,melting point,,113.6 to 114.9 °C
same,MIC K.pn,[8],999
same,MIC Ca,[9],999
